From US20040254128A1, “Treatment and prevention of heat shock protein-associated diseases and conditions” (priority 2001, published 2004)
Where two headings read alike, the source gives them in different places.

Experiments:
[1] = Pharmacokinetics in plasma after single bolus intravenous injection; settings: dog
[2] = test system: LPS endotoxin (Escherichia coli 0111:B4)-induced plasma TNF-α; settings: for TNF-α at 1 hr: plasma 1 hr after LPS; for TNF-α at 2 hr: plasma 2 hr after LPS
Procedure: LPS endotoxin (300 ng/kg) was injected intravenously into untreated dogs (◯) or simultaneously with 0.1 mg/kg E5564 (Δ) one hour after E5564 administration (□) or three hours after E5564 administration (●). Blood was drawn and analyzed for TNF-α concentration by bioassay, as is described in the Appendix, below. Each value represents the mean±S.E.M. of four animals.
In both assays, activity of the antagonist is quantitated by analysis of the cytokines induced by LPS administration.
Escherichia coli LPS (Serotype 0111:B4; phenol extracted, Cat. # L-2630) was purchased from Sigma Chem. Co. Ltd., St. Louis, Mo., USA. Lyophylized E5564 was solubilized in 5 ml of sterile water (Otsuka Pharm. Co. Ltd., Tokyo, Japan). LPS was weighed to an accuracy of 1/10 mg and solubilized in 5% glucose (Otsuka Pharm. Co. Ltd., Tokyo, Japan). The LPS solution was sonicated with a bath-type sonicator for 15 minutes after which aliquots were immediately prepared and stored at −20° C. Prior to use, the solution was sonicated for one or two minutes, and then dilutions were prepared in 5% glucose.
Nine month-old beagles were obtained from Kawashima-shoji Co. Ltd., Gifu, Japan) and housed in stainless steel wire cages (W 800 mm×D 680 mm×H 680 mm; one dog per cage) in a room with a constant temperature of 20-24° C., humidity of 45-65%, and 12 hour light-dark cycle. The animals were provided with pellet food (DS, Oriental Yeast Co., Tokyo, Japan) and water ad libitum. LPS endotoxin (300 ng/0.1 ml/kg) was injected into the vein of the right foreleg at a rate of 1-2 ml/min, and E5564 was injected into the vein of the left foreleg at a rate of 10-20 ml/min.
Immediately before or 1, 2, or 4 hours after intravenous injection of LPS and E5564, 1.5 ml of blood was drawn from the left cephalic vein. One milliliter was transferred into a tube containing 10 U of heparin (Mochida Pharm. Co. Ltd., Tokyo, Japan), centrifuged (2000×g, 5 minutes, 4° C.), and the plasma was used for bioassays for TNF-α and IL-6.
Aliquots of the plasma were tested for TNF in a bioassay based on the TNF-dependent cell death of L-P3 cells in the presence of actinomycin D. The L-P3 cell line is more sensitive to TNF-induced cell death than the L-929 cell line that is more commonly used.

[3] = Pharmacokinetics in plasma after 72 hours intravenous infusion; settings: beagle, dog
Procedure: Plasma levels of E5564 were determined during and after 72 hours of intravenous infusion of 0.03 mg/kg/hr E5564 (◯, ●), 0.1 mg/kg/hr E5564 (□, ▪), and 1 mg/kg/hr E5564 (Δ, ▴) into female (closed symbols) or male (open symbols) beagle dogs. At the indicated times, blood was drawn and analyzed for E5564 concentration by extraction and analysis by HPLC. Each value represents the mean±S.E.M. of three animals.

[4] = 0.1 mg/kg E5564 iv one hour before LPS 300 ng/kg iv
[5] = 0.1 mg/kg E5564 iv three hours before LPS 300 ng/kg iv

CCCCCC/C=C\CCCCCCCCCC(=O)N[C@H]1[C@H](OC[C@H]2O[C@H](OP(=O)(O)O)[C@H](NC(=O)CC(=O)CCCCCCCCCCC)[C@@H](OCCCCCCCCCC)[C@@H]2O)O[C@H](COC)[C@@H](OP(=O)(O)O)[C@@H]1OCC[C@@H](CCCCCCC)OC [E5564, α-D-Glucopyranose, 3-O-decyl-2-deoxy-6-O-[2-deoxy-3-O-[(3R)-3-methoxydecyl)-6-O-methyl-2-[[(11Z)-1-oxo-11-octadecenyl)amino]-4-O-phosphono-β-D-glucopyranosyl]-2-[(1,3-dioxotetradecyl)amino]-, 1-(dihydrogen phosphate)]
AUC ([1]; 0.1 mg/kg): 71.8 µg·h/mL | half-life ([1]; 0.1 mg/kg): 41.7 ± 2.7 h | AUC ([1]; 0.3 mg/kg): 271 ± 28.3 µg·h/mL | half-life ([1]; 0.3 mg/kg): 50.4 ± 2.2 h | AUC ([1]; 1 mg/kg): 744 µg·h/mL | half-life ([1]; 1 mg/kg): 46.4 ± 2.7 h | Activity of the endotoxin antagonist, % of its original activity ([2]; 0.1 mg/kg E5564, LPS administered three hours after E5564 dose): about 48% | TNF-α at 1 hr [2, 4]: 0 units/ml | TNF-α at 2 hr [2, 4]: 0 units/ml | TNF-α at 1 hr ([2]; 0.1 mg/kg E5564 iv simultaneously with LPS 300 ng/kg iv, n=4 dogs): 0 units/ml | TNF-α at 2 hr ([2]; 0.1 mg/kg E5564 iv simultaneously with LPS 300 ng/kg iv): 0 units/ml | TNF-α at 1 hr [2, 5]: 1353 ± 340 units/ml | TNF-α at 2 hr [2, 5]: 190 ± 113 units/ml | AUC(0-t) ([3]; female, 0.1 mg/kg): 790 ± 51 µg·h/mL | concentration at 72 h ([3]; female, 0.1 mg/kg): 10400 ± 930 ng/mL | half-life ([3]; female, 0.1 mg/kg): 40.9 ± 9.5 h | AUC(0-t) ([3]; female, 0.3 mg/kg): 2620 ± 737 µg·h/mL | concentration at 72 h ([3]; female, 0.3 mg/kg): 32400 ± 5720 ng/mL | half-life ([3]; female, 0.3 mg/kg): 38 ± 11.6 h | AUC(0-t) ([3]; female, 1 mg/kg): 29600 ± 1510 µg·h/mL | concentration at 72 h ([3]; female, 1 mg/kg): 394000 ± 14200 ng/mL | half-life ([3]; female, 1 mg/kg): 32 ± 2.8 h | AUC(0-t) ([3]; male, 0.1 mg/kg): 1070 ± 139 µg·h/mL | concentration at 72 h ([3]; male, 0.1 mg/kg): 13100 ± 1220 ng/mL | half-life ([3]; male, 0.1 mg/kg): 38.4 ± 4.5 h | AUC(0-t) ([3]; male, 0.3 mg/kg): 3310 ± 485 µg·h/mL | concentration at 72 h ([3]; male, 0.3 mg/kg): 41300 ± 7180 ng/mL | half-life ([3]; male, 0.3 mg/kg): 39.9 ± 11.2 h | AUC(0-t) ([3]; male, 1 mg/kg): 27100 ± 5740 µg·h/mL | concentration at 72 h ([3]; male, 1 mg/kg): 366000 ± 69300 ng/mL | half-life ([3]; male, 1 mg/kg): 35.1 ± 8.7 h
